Assay results reported in PubChem BioAssay AID330 (DTP/NCI, 2004).
Values joined by “and” are separate entries in the source; they are usually repeats but may differ in a detail not shown here. Identical values can stand only once. Inconclusive results and toxic doses are left out.

System: P388 leukemia ip, CD2F1 mice, survival T/C
Assay: NCI In Vivo Anticancer Drug Screen. Data for tumor model P388 Leukemia (intraperitoneal) in CD2F1 (CDF1) mice
Settings: endpoint: median survival time, higher = longer survival
Procedure, shortened: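 Mice carrying the transplanted tumor received test compound or vehicle. Survival was recorded in each group, and the value is the treated-group measurement divided by that of the vehicle-treated control group.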

[1] = dose: 50.0 mg/kg/injection, schedule: Q01DX005 (ip), vehicle: saline with Tween-80
[2] = dose: 100.0 mg/kg/injection, schedule: Q01DX005 (ip), vehicle: saline with Tween-80
[3] = dose: 200.0 mg/kg/injection, schedule: Q01DX005 (ip), vehicle: saline with Tween-80
[4] = dose: 50.0 mg/kg/injection, schedule: Q01DX005 (ip), vehicle: Klucel (hydroxypropylcellulose) (HPC)
[5] = dose: 60.0 mg/kg/injection, schedule: Q01DX005 (ip), vehicle: Klucel (hydroxypropylcellulose) (HPC)
[6] = dose: 120.0 mg/kg/injection, schedule: Q01DX005 (ip), vehicle: Klucel (hydroxypropylcellulose) (HPC)
[7] = dose: 240.0 mg/kg/injection, schedule: Q01DX005 (ip), vehicle: Klucel (hydroxypropylcellulose) (HPC)
[8] = dose: 60.0 mg/kg/injection, schedule: Q01DX005 (ip), vehicle: saline with Tween-80
[9] = dose: 120.0 mg/kg/injection, schedule: Q01DX005 (ip), vehicle: saline with Tween-80
[10] = dose: 240.0 mg/kg/injection, schedule: Q01DX005 (ip), vehicle: saline with Tween-80
[11] = dose: 50.0 mg/kg/injection, schedule: Q01DX009 (ip), vehicle: Klucel (hydroxypropylcellulose) (HPC)
[12] = dose: 100.0 mg/kg/injection, schedule: Q01DX009 (ip), vehicle: Klucel (hydroxypropylcellulose) (HPC)

Compound: CCCCCCC(=O)/C=C/c1ccc(F)cc1
- T/C [1]: 101 % of control
- T/C [2]: 106 % of control
- T/C [3]: 100 % of control

Compound: Nc1nc(N)c(CCc2ccccc2)c(N)n1
- T/C (dose: 12.5 mg/kg/injection, schedule: Q01DX005 (ip), vehicle: Klucel (hydroxypropylcellulose) (HPC)): 97 % of control
- T/C (dose: 25.0 mg/kg/injection, schedule: Q01DX005 (ip), vehicle: Klucel (hydroxypropylcellulose) (HPC)): 103 % of control
- T/C [4]: 92 % of control and 97 % of control

Compound: CCN1CC[N+](CC)=C1C(=S)[S-]
- T/C (dose: 100.0 mg/kg/injection, schedule: Q01DX001 (ip), vehicle: saline with Tween-80): 100 % of control
- T/C (dose: 200.0 mg/kg/injection, schedule: Q01DX001 (ip), vehicle: saline with Tween-80): 104 % of control
- T/C (dose: 400.0 mg/kg/injection, schedule: Q01DX001 (ip), vehicle: saline with Tween-80): 100 % of control

Compound: COc1ccc(S(=O)(=O)O)cc1N=N/C(=N/Nc1cc(S(=O)(=O)O)ccc1OC)C(=O)Nc1ccccc1
- T/C [5]: 101 % of control
- T/C [6]: 101 % of control
- T/C [7]: 105 % of control

Compound: C=CN=NNc1cc(OC)ccc1OC
- T/C (dose: 100.0 mg/kg/injection, schedule: Q04DX003 (ip), vehicle: saline + Tween-80 + alcohol): 105 % of control
- T/C (dose: 200.0 mg/kg/injection, schedule: Q04DX003 (ip), vehicle: saline + Tween-80 + alcohol): 103 % of control
- T/C (dose: 400.0 mg/kg/injection, schedule: Q04DX003 (ip), vehicle: saline + Tween-80 + alcohol): 102 % of control

Compound: Cc1cc(C(O)(C(F)(F)F)C(F)(F)F)c(N)c(C(O)(C(F)(F)F)C(F)(F)F)c1
- T/C [4]: 104 % of control
- T/C (dose: 100.0 mg/kg/injection, schedule: Q01DX005 (ip), vehicle: Klucel (hydroxypropylcellulose) (HPC)): 103 % of control

Compound: Cc1ccc(C)c(NC(=O)CCC(=O)C(C#N)c2cccc3ccccc23)c1 (stereo unspecified)
- T/C [8]: 104 % of control
- T/C [9]: 104 % of control
- T/C [10]: 105 % of control

Compound: CCOC(=O)NC1CCC2(C)CCCCC2C1 (stereo unspecified)
- T/C (dose: 50.0 mg/kg/injection, schedule: Q01DX009 (ip), vehicle: saline): 100 % of control
- T/C (dose: 100.0 mg/kg/injection, schedule: Q01DX009 (ip), vehicle: saline): 97 % of control
- T/C (dose: 200.0 mg/kg/injection, schedule: Q01DX009 (ip), vehicle: saline): 109 % of control

Compound: CCOC(=O)Cn1/c(=N/N=C(\C)c2ccc([N+](=O)[O-])o2)sc2cc(Cl)ccc21
- T/C [5]: 102 % of control
- T/C [6]: 106 % of control and 96 % of control
- T/C [7]: 101 % of control and 91 % of control

Compound: CCc1nc(N)nc(N)c1-c1ccc([N+](=O)[O-])cc1
- T/C [1]: 108 % of control
- T/C [2]: 108 % of control

Compound: COC1C(C)OC(O[C@@H]2C[C@@](C)(O)Cc3cc4c(c(O)c32)C(=O)c2c(O)cc3c(c2C4=O)O[C@@H]2O[C@@]3(C)[C@@H](O)[C@H](N(C)C)[C@H]2O)C(OC)C1(C)OC (stereo partly specified)
- T/C (dose: 3.12 mg/kg/injection, schedule: Q01DX009 (ip), vehicle: other): 119 % of control

Compound: Cn1c(-c2ccccc2)cc2cc(CN)ccc21
- T/C [11]: 100 % of control
- T/C [12]: 100 % of control

Compound: Cc1cc(Br)ccc1N=c1scc(-c2ccc(Cl)cc2)n1C
- T/C [11]: 95 % of control
- T/C [12]: 93 % of control
- T/C (dose: 200.0 mg/kg/injection, schedule: Q01DX009 (ip), vehicle: Klucel (hydroxypropylcellulose) (HPC)): 91 % of control

Compound: O=C1CSC(c2cccc(F)c2)N1c1nncs1 (stereo unspecified)
- T/C [8]: 98 % of control
- T/C [9]: 105 % of control
- T/C [10]: 106 % of control

Compound: COC(=O)/C=C(/C(=O)OC)N(O)C(=O)CN1C(=O)c2ccccc2C1=O
- T/C [8]: 102 % of control
- T/C [9]: 100 % of control
- T/C [10]: 101 % of control

Compound: COc1cccc2c1C(=O)c1c(O)c3c(c(O)c1C2=O)C[C@@](O)(CCO)C[C@@H]3OC1CC(N)C(O)C(C)O1 (stereo partly specified)
- T/C (dose: 0.39 mg/kg/injection, schedule: Q01DX009 (ip), vehicle: water): 151 % of control
- T/C (dose: 0.78 mg/kg/injection, schedule: Q01DX009 (ip), vehicle: water): 158 % of control and 164 % of control
- T/C (dose: 1.2 mg/kg/injection, schedule: Q04DX003 (ip), vehicle: water): 119 % of control
- T/C (dose: 1.56 mg/kg/injection, schedule: Q01DX009 (ip), vehicle: water): 153 % of control and 158 % of control
- T/C (dose: 2.4 mg/kg/injection, schedule: Q04DX003 (ip), vehicle: water): 106 % of control and 112 % of control
- T/C (dose: 3.13 mg/kg/injection, schedule: Q01DX009 (ip), vehicle: water): 163 % of control and 164 % of control
- T/C (dose: 4.7 mg/kg/injection, schedule: Q04DX003 (ip), vehicle: water): 120 % of control
- T/C (dose: 6.25 mg/kg/injection, schedule: Q01DX009 (ip), vehicle: water): 153 % of control
- T/C (dose: 9.4 mg/kg/injection, schedule: Q04DX003 (ip), vehicle: water): 154 % of control
- T/C (dose: 18.8 mg/kg/injection, schedule: Q04DX003 (ip), vehicle: water): 158 % of control
- T/C (dose: 75.0 mg/kg/injection, schedule: Q04DX003 (ip), vehicle: water): 97 % of control

Compound: COc1cc2c(cc1C(C)c1ccc(F)cc1)OCO2 (stereo unspecified)
- T/C [1]: 98 % of control
- T/C [2]: 100 % of control
- T/C [3]: 107 % of control

Compound: O=c1nc2n(c3ncccc13)CC=NN2
- T/C [8]: 99 % of control
- T/C [9]: 100 % of control

Compound: COC1=NC=CC=CC1
- T/C (dose: 6.25 mg/kg/injection, schedule: Q01DX009 (ip), vehicle: saline with Tween-80): 103 % of control
- T/C (dose: 12.5 mg/kg/injection, schedule: Q01DX009 (ip), vehicle: saline with Tween-80): 111 % of control
- T/C (dose: 25.0 mg/kg/injection, schedule: Q01DX009 (ip), vehicle: saline with Tween-80): 107 % of control

Compound: COc1ccc2c(c1)C(=O)[C@]1(C)C3(C)OC(=O)C(c4ccccc43)[C@]21C (stereo partly specified)
- T/C [8]: 110 % of control
- T/C [9]: 105 % of control
- T/C [10]: 98 % of control

Compound: N#Cc1n[nH]c2nc(=S)sc(N)c12
- T/C (dose: 100.0 mg/kg/injection, schedule: Q04DX002 (ip), vehicle: water): 103 % of control
- T/C (dose: 200.0 mg/kg/injection, schedule: Q04DX002 (ip), vehicle: water): 90 % of control
- T/C (dose: 400.0 mg/kg/injection, schedule: Q04DX002 (ip), vehicle: water): 97 % of control

Compound: CC(CN(C)C)Nc1c2ccccc2nc2cccc([N+](=O)[O-])c12 (stereo unspecified)
- T/C (dose: 0.04 mg/kg/injection, schedule: Q01DX009 (ip), vehicle: saline): 87 % of control
- T/C (dose: 0.09 mg/kg/injection, schedule: Q01DX009 (ip), vehicle: saline): 101 % of control
- T/C (dose: 0.19 mg/kg/injection, schedule: Q01DX009 (ip), vehicle: saline): 102 % of control and 113 % of control
- T/C (dose: 0.39 mg/kg/injection, schedule: Q01DX009 (ip), vehicle: saline): 109 % of control

Compound: CCn1c(Cl)c(/C=N/NC(N)=S)c2ccccc21
- T/C (dose: 100.0 mg/kg/injection, schedule: Q01DX001 (ip), vehicle: Klucel (hydroxypropylcellulose) (HPC)): 97 % of control
- T/C (dose: 200.0 mg/kg/injection, schedule: Q01DX001 (ip), vehicle: Klucel (hydroxypropylcellulose) (HPC)): 91 % of control

Compound: NC(=O)C1CCCN(C2OC(COP(=O)(O)OP(=O)(O)OCC3OC(n4cnc5c(=O)[nH]c(N)nc54)C(O)C3O)C(O)C2O)C1 (stereo unspecified)
- T/C [1]: 100 % of control
- T/C [2]: 104 % of control
- T/C [3]: 100 % of control

Compound: C=CCOc1cc2c(cc1C(C)c1ccccc1OC)OCO2 (stereo unspecified)
- T/C [1]: 99 % of control
- T/C [2]: 97 % of control
- T/C [3]: 104 % of control

Compound: CC[N+](C)(CC)CCSC1=Nc2ccccc2N=C(c2ccc(Sc3ccccc3)cc2)C1
- T/C (dose: 1.56 mg/kg/injection, schedule: Q01DX009 (ip), vehicle: Klucel (hydroxypropylcellulose) (HPC)): 117 % of control
- T/C (dose: 3.12 mg/kg/injection, schedule: Q01DX009 (ip), vehicle: Klucel (hydroxypropylcellulose) (HPC)): 99 % of control
- T/C (dose: 6.25 mg/kg/injection, schedule: Q01DX009 (ip), vehicle: Klucel (hydroxypropylcellulose) (HPC)): 106 % of control and 108 % of control

Compound: O=S1(=O)CC2(N3CCOCC3)CCCCC21 (stereo unspecified)
- T/C (dose: 100.0 mg/kg/injection, schedule: Q04DX003 (ip), vehicle: saline with Tween-80): 95 % of control
- T/C (dose: 200.0 mg/kg/injection, schedule: Q04DX003 (ip), vehicle: saline with Tween-80): 100 % of control
- T/C (dose: 400.0 mg/kg/injection, schedule: Q04DX003 (ip), vehicle: saline with Tween-80): 95 % of control

Compound: CC(=O)OC1SC(OC(C)=O)C2OC(=O)OC12 (stereo unspecified)
- T/C (dose: 50.0 mg/kg/injection, schedule: Q01DX009 (ip), vehicle: saline with Tween-80): 101 % of control
- T/C (dose: 100.0 mg/kg/injection, schedule: Q01DX009 (ip), vehicle: saline with Tween-80): 108 % of control
- T/C (dose: 200.0 mg/kg/injection, schedule: Q01DX009 (ip), vehicle: saline with Tween-80): 100 % of control
